From publication PMC8344021, “Discovery of Small Molecule Bak Activator for Lung Cancer Therapy” (Theranostics, 2021)

Experiments:
A549 cells = test: Dynamic BH3 profiling (DBP), mitochondrial priming; format: cell-based, human; details: 0, 0.25, 0.5, 0.75, 1.0 µM, 16h
Protocol: DBP using Bim peptide was carried out as described previously [24]-[26]. After treatment with BKA-073, venetoclax (ABT-199) or DMSO control for 16h, cells were collected, washed and resuspended at 2 x 10^6 cells/ mL in mannitol experimental buffer (MEB) [150 mM D-mannitol, 10 mM HEPES-KOH (pH 7.5), 50 mM KCl, 20 μM EGTA, 20 μM EDTA, 0.1% BSA, and 5 mM succinate] as described. One volume of the 4x cell suspension was added to one volume of a 4x dye solution containing 4 μM JC-1, […] oligomycin, 0.02% digitonin, 20mM β-mercaptoethanol in MEB. The 2x cell/dye mixture was allowed to rest for 5-10 min at room temperature to allow for permeabilization and JC-1 staining. A total of 15μl of the 2x cell/dye mixture was loaded into a 384-well plate that contained 15µL of Bim BH3 peptide (0.03, 0.1, 0.3, 1, and 3 μM) in MEB, shaken for 15 s inside the reader, and the fluorescence at 590 nm monitored every 5 min for 180 min at 32 °C. The dynamic BH3 profile (∆ % Priming) was calculated as described [24]-[26].
The BH3 death domain is known to be required for the proapoptotic function of Bak. […] The top 500 compounds determined to have the highest affinity for the BH3 domain were obtained from the NCI and tested for cytotoxicity in human lung cancer cells (i.e. H1299, H460 and A549 cells) by sulforhodamine B (SRB) assay for further screening as described, [36]. […]

Bak-/- A549 xenografts = test: Bak-/- A549 xenografts, tumor growth; format: in vivo, Nu/Nu nude mice; details: 12.5mg/kg/d i.p., 28 days
Protocol: (§1) Six-week-old female Nu/Nu nude mice were purchased from Envigo (Indianapolis, IN) and housed under pathogen-free conditions in microisolator cages. The animal propagation protocol was approved by the Emory Institutional Animal Care and Use Committee (IACUC) and the Emory Animal Ethics Committee. 3×10^6 lung cancer cells were injected into subcutaneous tissue in the flank region of nude mice. The tumors were allowed to grow to an average volume of 150~200 mm^3 prior to initiation of therapy as previously described, [29]. Patient-derived xenografts (PDXs, TKO-002 and TKO-005) were established as part of an IRB-approved phase II co-clinical trial of arsenic trioxide in patients with relapsed SCLC who had failed standard platinum-based chemotherapy. Tumor samples were obtained by image-guided biopsy and were directly implanted into Nu/Nu nude mice without intervening propagation in plastic culture plates. Direct serial propagation of growing tumor occurred for up to 5 generations. The animal propagation protocol was approved by the Emory IACUC and the Emory Animal Ethics Committee. Mice with SCLC and NSCLC xenografts or PDXs were treated with BKA-073 intraperitoneally (i.p.) or venetoclax orally as indicated. During treatment, tumor volume (V) was measured by caliper measurements once every two days as described previously. Mice were euthanized by CO2 inhalation at the end of treatment. […]

A549-IRR xenografts = test: Radioresistant A549-IRR xenografts, tumor growth; format: in vivo, Nu/Nu nude mice; details: 15 mg/kg/d, 4 weeks
Protocol: as §1, with “The animal propagation protocol was approved by the Emory IACUC and the Emory Animal Ethics Committee. Mice with SCLC and NSCLC xenografts or PDXs were treated with BKA-073 intraperitoneally (i.p.) or venetoclax orally as indicated.” left out, “previously.” for “previously. Mice were euthanized by CO2 inhalation at the end of treatment.”
Figure S7. […] (A) Expression levels of Bak in A549-P versus A549-IRR cells, H358-P versus H358 -IRR cells or H460-P versus H460-IRR cells were analyzed by Western blot. […]
Tumor volume was measured once every 2 days. After treatment, mice were sacrificed and tumors were removed and analyzed. […]

COc1ccc2nc3ccccc3c(NCCNCC(C)O)c2c1 (stereo not drawn) [BKA-073]
induction of mitochondrial priming (∆% priming) (A549 cells): in a dose-dependent manner | tumor growth (Bak-/- A549 xenografts): no inhibitory effect | tumor growth (A549-IRR xenografts): repressed xenografts
